Drawing on patent publication US5610303A, “Arylamino pyrimidine compound” (Ube Industries, Ltd., priority 1992, dated 1997), this text covers IC50 for 15 molecules.

Where only a bound is given, the exact number is not on record here.

What all share (type): biochemical
For one assay, the target named is T1, B type monoamine oxidase (Rattus norvegicus, UniProt P19643).
T1 construct: a rat cerebrum homogenized in a 0.1M phosphate buffer was used; from tissue; host or cells: rat cerebrum homogenate
T1 sequence (P19643 1-520): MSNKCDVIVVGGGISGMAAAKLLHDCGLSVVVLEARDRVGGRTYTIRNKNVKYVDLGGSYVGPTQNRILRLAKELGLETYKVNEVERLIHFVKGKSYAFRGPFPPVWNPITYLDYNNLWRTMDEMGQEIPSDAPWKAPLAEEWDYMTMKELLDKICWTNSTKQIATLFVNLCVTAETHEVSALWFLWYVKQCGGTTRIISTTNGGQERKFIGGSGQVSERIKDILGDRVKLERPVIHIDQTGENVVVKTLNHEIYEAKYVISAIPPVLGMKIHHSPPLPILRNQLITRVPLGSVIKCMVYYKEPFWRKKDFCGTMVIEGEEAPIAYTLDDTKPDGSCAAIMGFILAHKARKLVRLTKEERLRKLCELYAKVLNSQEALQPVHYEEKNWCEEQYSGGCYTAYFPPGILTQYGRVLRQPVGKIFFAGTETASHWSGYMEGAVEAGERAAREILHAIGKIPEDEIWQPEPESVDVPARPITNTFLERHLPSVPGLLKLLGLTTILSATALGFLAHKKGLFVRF
Kind of assay: B type monoamine oxidase-inhibiting activity (Test example 3; rat cerebrum homogenate, 14C-β-PEA substrate). As to conditions: β-PEA 20 μM, preincubated 37° C. 30 minutes, Hill analysis, read-out: IC50 value, Inhibition of B type monoamine oxidase. As to the method: (§1) A type and B type monoamine oxidase-inhibiting activity
(§2) As an enzyme source, a rat cerebrum homogenized in a 0.1M phosphate buffer was used.
(§3) That is, the rat cerebrum homogenate suitably diluted with a 0.1M phosphate buffer and each compound to be tested were preincubated at 37° C. for 30 minutes. […] After the mixture was separated into two layers by centrifugation, a part of the organic layer was mixed with liquid scintillation cocktail. Radioactivity extracted into the organic layer was measured by a liquid scintillation counter to calculate the enzyme activity.
(§4) Inhibiting rates were calculated from enzyme activities in the presence of the compounds to be tested having various concentrations based on enzyme activities in the absence of the compounds to be tested, with absorbance when reaction was carried out in the absence of the homogenate being defined as blank. IC50 values were calculated by Hill analysis.

For the next assay, the target named is T2, butyrylcholinesterase (Rattus norvegicus, UniProt Q9JKC1).
T2 construct: As an enzyme source, a rat serum was used; from tissue; host or cells: rat serum
Kind of assay: Butyrylcholinesterase-inhibiting activity (Test example 2; rat serum, modified Ellman method). On the procedure:
Butyrylcholinesterase-inhibiting activity
As an enzyme source, a rat serum was used.
The activity of butyrylcholinesterase was measured by a partially modified method of the above method of Ellman et. al. That is, to the rat serum suitably diluted with a 0.1M phosphate buffer were added each compound to be tested, DTNB and butyrylthiocholine as a substrate, and the mixture was incubated at 25° C. for a predetermined time.
(§5) Enzyme activity-inhibiting rates were calculated from absorbances in the presence of the compounds to be tested having various concentrations based on absorbances in the absence of the compounds to be tested, with absorbance when reaction was carried out in the absence of the substrate being defined as blank. IC50 values were calculated by Hill analysis.
For orientation: Ellman's reagent forms a yellow product with free thiols.

Another assay addresses T3, A type monoamine oxidase (Rattus norvegicus, UniProt P21396).
T3 construct: a rat cerebrum homogenized in a 0.1M phosphate buffer was used; from tissue; host or cells: rat cerebrum homogenate
T3 sequence (P21396 1-526): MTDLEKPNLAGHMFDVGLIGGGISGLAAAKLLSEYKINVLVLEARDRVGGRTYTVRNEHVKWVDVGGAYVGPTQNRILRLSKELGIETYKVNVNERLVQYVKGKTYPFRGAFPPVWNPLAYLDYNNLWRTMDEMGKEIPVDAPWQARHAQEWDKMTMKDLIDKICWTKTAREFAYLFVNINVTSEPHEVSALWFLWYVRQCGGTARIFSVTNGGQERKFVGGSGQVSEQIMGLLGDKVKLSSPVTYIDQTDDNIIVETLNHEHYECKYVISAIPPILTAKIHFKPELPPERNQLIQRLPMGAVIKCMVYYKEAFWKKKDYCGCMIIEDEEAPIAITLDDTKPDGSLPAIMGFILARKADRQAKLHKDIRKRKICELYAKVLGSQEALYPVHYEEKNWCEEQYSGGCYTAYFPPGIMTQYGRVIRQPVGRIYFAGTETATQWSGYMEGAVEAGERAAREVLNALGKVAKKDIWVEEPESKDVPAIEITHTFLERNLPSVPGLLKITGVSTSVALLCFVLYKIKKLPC
Kind of assay: A type monoamine oxidase-inhibiting activity (Test example 3; rat cerebrum homogenate, 14C-5-HT substrate). As to conditions: 5-HT 200 μM, preincubated 37° C. 30 minutes, Hill analysis, read-out: IC50 value, Inhibition of A type monoamine oxidase. As to the method:
as §1, §2, §3, §4

A further assay concerns the target T4, acetylcholinesterase (Rattus norvegicus, UniProt P37136).
T4 construct: a crude synaptosome fraction of a rat cerebrum was used; from tissue; host or cells: rat cerebrum, crude synaptosome fraction
Kind of assay: Acetylcholinesterase-inhibiting activity (Test example 1; crude synaptosome fraction of rat cerebrum, modified Ellman method). On the procedure:
Acetylcholinesterase-inhibiting activity
As an enzyme source, a crude synaptosome fraction of a rat cerebrum was used.
That is, to the crude synaptosome fraction of the rat cerebrum suitably diluted with a 0.1M phosphate buffer were added each compound to be tested, 5,5'-dithiobis(2-nitrobenzoic acid) (hereinafter referred to as DTNB) and acetylthiocholine as a substrate, and the mixture was incubated at 25° C. for a predetermined time.
as §5

T2 sequence (Q9JKC1 24-597): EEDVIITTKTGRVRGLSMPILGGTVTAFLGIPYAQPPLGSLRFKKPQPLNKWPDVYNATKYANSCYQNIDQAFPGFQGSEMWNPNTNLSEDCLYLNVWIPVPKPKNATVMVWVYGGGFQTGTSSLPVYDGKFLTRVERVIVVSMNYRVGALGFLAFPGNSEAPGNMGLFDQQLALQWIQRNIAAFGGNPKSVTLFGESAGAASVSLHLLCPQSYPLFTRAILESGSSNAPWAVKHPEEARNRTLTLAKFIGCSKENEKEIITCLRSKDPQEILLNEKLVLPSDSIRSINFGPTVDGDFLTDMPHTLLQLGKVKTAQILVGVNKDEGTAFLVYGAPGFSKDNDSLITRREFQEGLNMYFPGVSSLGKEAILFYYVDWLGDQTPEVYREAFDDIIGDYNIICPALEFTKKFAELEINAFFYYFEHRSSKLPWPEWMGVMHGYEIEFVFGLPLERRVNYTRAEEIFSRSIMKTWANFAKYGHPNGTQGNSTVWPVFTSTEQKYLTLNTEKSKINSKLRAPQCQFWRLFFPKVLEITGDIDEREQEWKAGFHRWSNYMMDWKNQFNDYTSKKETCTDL
T4 sequence (P37136 32-614): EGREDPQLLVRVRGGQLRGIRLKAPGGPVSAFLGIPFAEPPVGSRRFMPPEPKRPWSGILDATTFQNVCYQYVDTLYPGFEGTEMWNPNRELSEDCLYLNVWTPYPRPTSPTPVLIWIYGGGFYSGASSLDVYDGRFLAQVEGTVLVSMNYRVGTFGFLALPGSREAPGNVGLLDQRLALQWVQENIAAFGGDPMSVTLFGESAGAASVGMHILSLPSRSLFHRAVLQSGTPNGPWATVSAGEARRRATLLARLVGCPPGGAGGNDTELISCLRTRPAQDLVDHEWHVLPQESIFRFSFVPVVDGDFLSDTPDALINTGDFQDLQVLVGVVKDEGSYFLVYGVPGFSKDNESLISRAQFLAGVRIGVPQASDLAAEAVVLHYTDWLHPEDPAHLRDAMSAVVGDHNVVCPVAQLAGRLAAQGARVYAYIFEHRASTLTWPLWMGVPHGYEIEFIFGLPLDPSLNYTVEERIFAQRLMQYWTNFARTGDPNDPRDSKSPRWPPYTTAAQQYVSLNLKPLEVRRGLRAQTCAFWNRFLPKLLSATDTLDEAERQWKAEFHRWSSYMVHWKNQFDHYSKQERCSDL

`N#Cc1ccc(Nc2ncnc3c2CCC3)cc1` [Compound B, 4-(4-cyanoanilino)-5,6-dihydro-7H-cyclopenta[d]pyrimidine, reference compound]: the half-inhibitory concentration (IC50) was > 10000 nM at B type monoamine oxidase, > 10000 nM against butyrylcholinesterase, 160 nM at A type monoamine oxidase and > 10000 nM at acetylcholinesterase.

Regarding `Cc1ncnc(Nc2ccc(C(=O)/C=C/C3CCN(Cc4ccccc4)CC3)cc2)c1C` [Example 1, (E)-N-(5,6-dimethylpyrimidin-4-yl)-4-[3-(1-benzyl-piperidin-4-yl)propenoyl]aniline], the half-maximal inhibitory concentration (IC50) is > 10000 nM on B type monoamine oxidase, > 10000 nM at butyrylcholinesterase, 1600 nM at A type monoamine oxidase and 3.3 nM at acetylcholinesterase.

For the molecule `Cc1ncnc(Nc2ccc(C(=O)CCC3CCN(Cc4ccccc4)CC3)cc2)c1C` [Example 2, N-(5,6-dimethylpyrimidin-4-yl)-4-[3-(1-benzylpiperidin-4-yl)propanoyl]aniline], the concentration for half-maximal inhibition (IC50) was > 10000 nM on B type monoamine oxidase, > 10000 nM against butyrylcholinesterase, 890 nM at A type monoamine oxidase and 3.6 nM against acetylcholinesterase.

Take `O=C(/C=C/C1CCN(Cc2ccccc2)CC1)c1ccc(Nc2ncnc3c2CCC3)cc1` [Example 6, (E)-N-(5,6-dihydro-7H-cyclopenta[d]pyrimidin-4-yl)-4-[3-(1-benzylpiperidin-4-yl)propenoyl]aniline]: the IC50 was > 10000 nM at B type monoamine oxidase, > 10000 nM against butyrylcholinesterase, 220 nM at A type monoamine oxidase and 3.1 nM on acetylcholinesterase.

Consider `O=C(CCC1CCN(Cc2ccccc2)CC1)c1ccc(Nc2ncnc3c2CCC3)cc1` [Example 8, N-(5,6-dihydro-7H-cyclopenta[d]pyrimidin-4-yl)-4-[3(1-benzylpiperidin-4-yl)propanoyl]aniline. 2HCl], for which the half-maximal inhibitory concentration (IC50) on B type monoamine oxidase was > 10000 nM; on butyrylcholinesterase it was > 10000 nM; on A type monoamine oxidase, 85 nM; against acetylcholinesterase it was 2 nM.

As to `O=C(/C=C/C1CCN(Cc2ccccc2)CC1)c1ccc(Nc2ncnc3c2CCCC3)cc1` [Example 9, (E)-N-(5,6,7,8-tetrahydroquinazolin-4-yl)-4-[3-(1-benzylpiperidin-4-yl)propenoyl]aniline], the 50% inhibitory concentration (IC50) on B type monoamine oxidase is > 10000 nM; at butyrylcholinesterase it was > 10000 nM; at A type monoamine oxidase it was 1400 nM; on acetylcholinesterase, 1.4 nM.

`O=C(CCC1CCN(Cc2ccccc2)CC1)c1ccc(Nc2ncnc3c2CCCC3)cc1` [Example 10, N-(5,6,7,8-tetrahydroquinazolin-4-yl)-4-[3-(1-benzyl-piperidin-4-yl)propanoyl]aniline]: the IC50 at B type monoamine oxidase is > 10000 nM; on butyrylcholinesterase it was > 10000 nM; at A type monoamine oxidase it was 320 nM; at acetylcholinesterase it was 1.1 nM.

Consider `O=C1C(=CC2CCN(Cc3ccccc3)CC2)Cc2cc(Nc3ncnc4c3CCC4)ccc21` [Example 21, 4-[1-Oxo-2-(1-benzylpiperidin-4-yl)methyleneindan-5-yl]amino-5,6-dihydro-7H-cyclopenta[d]pyrimidine], for which the IC50 on B type monoamine oxidase is > 10000 nM; on butyrylcholinesterase, > 10000 nM; at A type monoamine oxidase it was 600 nM; on acetylcholinesterase, 20 nM.

With `O=C1c2ccc(Nc3ncnc4c3CCC4)cc2CC1CC1CCN(Cc2ccccc2)CC1` (stereo not drawn) [Example 22, 4-[1-Oxo-2-(1-benzylpiperidin-4-yl)methylindan-5-yl]amino-5,6-dihydro-7H-cyclopenta[d]pyrimidine], the IC50 at B type monoamine oxidase was > 10000 nM; against butyrylcholinesterase, > 10000 nM; at A type monoamine oxidase, 810 nM; at acetylcholinesterase, 7.3 nM.

In the case of `Cc1cncnc1Nc1ccc(C(=O)CC2CCN(Cc3ccccc3)CC2)cc1` [Example 25, N-(5-methylpyrimidin-4-yl)-4-[(1-benzylpiperidin-4-yl)acetyl]aniline], the concentration for half-maximal inhibition (IC50) is 6800 nM at B type monoamine oxidase, > 10000 nM against butyrylcholinesterase, 340 nM on A type monoamine oxidase and 250 nM against acetylcholinesterase.

Take `O=C(CC1CCN(Cc2ccccc2)CC1)c1ccc(Nc2ncnc3c2CCC3)cc1` [Example 26, N-(5,6-dihydro-7H-cyclopenta[d]pyrimidin-4-yl)-4-[(1-benzylpiperidin-4-yl)acetyl]aniline]: the IC50 at B type monoamine oxidase was > 10000 nM; at butyrylcholinesterase it was > 10000 nM; at A type monoamine oxidase it was 56 nM; at acetylcholinesterase, 150 nM.

Turning to `O=C(CCC1CCN(Cc2ccccn2)CC1)c1ccc(Nc2ncnc3c2CCC3)cc1` [Example 53, N-(5,6-dihydro-7H-cyclopenta-[d]pyrimidin-4-yl)-4-{3-[1-(2-pyridylmethyl)piperidin-4-yl]-propanoyl}aniline], the IC50 was > 10000 nM on B type monoamine oxidase, > 10000 nM against butyrylcholinesterase, 85 nM on A type monoamine oxidase and 17 nM against acetylcholinesterase.

Consider `O=C(CC1CCN(Cc2cccs2)CC1)c1ccc(Nc2ncnc3c2CCC3)cc1` [Example 87, N-(5,6-dihydro-7H-cyclopenta-[d]pyrimidin-4-yl)-4-{[1-(2-thienylmethyl)piperidin-4-yl]-acetyl}aniline], for which the concentration for half-maximal inhibition (IC50) is > 10000 nM on B type monoamine oxidase, > 10000 nM at butyrylcholinesterase, 35 nM at A type monoamine oxidase and 270 nM at acetylcholinesterase.

With `Cc1cncnc1Nc1ccc(C(=O)CC2CCN(Cc3cccs3)CC2)cc1` [Example 88, N-(5-methylpyrimidin-4-yl)-4-{[1-(2-thienylmethyl)piperidin-4-yl]acetyl}aniline], the IC50 at B type monoamine oxidase is 2100 nM; against butyrylcholinesterase, > 10000 nM; on A type monoamine oxidase, 250 nM; on acetylcholinesterase it was 330 nM.

Regarding `CCc1cncnc1Nc1ccc(C(=O)CC2CCN(Cc3ccccc3)CC2)cc1` [Example 93, N-(5-ethylpyrimidin-4-yl)-4-[(1-benzylpiperidin-4-yl)-acetyl]aniline], the half-inhibitory concentration (IC50) on B type monoamine oxidase is 7200 nM; on butyrylcholinesterase, > 10000 nM; on A type monoamine oxidase it was 420 nM; at acetylcholinesterase it was 200 nM.

One may read the IC50 as the concentration that gives 50% inhibition.
